Experimental data reported in EP4792833A1, “CLEAVABLE LINKER COMPOUND FOR PRODRUG DELIVERY SYSTEM, AND PREPARATION AND USE THEREOF” (East China Normal University, priority 2023, dated 2025).

Assays:
[1] = system: HCT116 cell xenograft tumor model; experiment: Antitumor effect in HCT116 xenograft nude mice; format: in vivo, BALB/c nude mice
Method: Female BALB/c nude mice (4 weeks old) were selected and acclimated for three days in a barrier facility. HCT116 cells (5×10^6) were subcutaneously inoculated into the right flank of nude mice. When tumors grew to 80-100 mm^3, tumor-bearing nude mice were randomly divided into four groups with six mice per group. Normal saline (blank group), 30 mg/kg of (J1-1), and 60 mg/kg of Compound (J1-1) prepared in Example 1 of the present invention (supplementary treatment group) were administered intravenously via the tail vein, respectively. Administration was performed twice a week for a total of five times. Body weight and tumor volume of nude mice were observed and recorded.

β-glucuronidase = target: T1, β-glucuronidase (Homo sapiens, UniProt P08236); experiment: Enzyme release assay with β-glucuronidase (SN38 by HPLC); format: biochemical; details: for release of SN38 triggered by β-glucuronidase: β-glucuronidase 300 U, 37 °C, within 45 min
T1 sequence (P08236 23-651): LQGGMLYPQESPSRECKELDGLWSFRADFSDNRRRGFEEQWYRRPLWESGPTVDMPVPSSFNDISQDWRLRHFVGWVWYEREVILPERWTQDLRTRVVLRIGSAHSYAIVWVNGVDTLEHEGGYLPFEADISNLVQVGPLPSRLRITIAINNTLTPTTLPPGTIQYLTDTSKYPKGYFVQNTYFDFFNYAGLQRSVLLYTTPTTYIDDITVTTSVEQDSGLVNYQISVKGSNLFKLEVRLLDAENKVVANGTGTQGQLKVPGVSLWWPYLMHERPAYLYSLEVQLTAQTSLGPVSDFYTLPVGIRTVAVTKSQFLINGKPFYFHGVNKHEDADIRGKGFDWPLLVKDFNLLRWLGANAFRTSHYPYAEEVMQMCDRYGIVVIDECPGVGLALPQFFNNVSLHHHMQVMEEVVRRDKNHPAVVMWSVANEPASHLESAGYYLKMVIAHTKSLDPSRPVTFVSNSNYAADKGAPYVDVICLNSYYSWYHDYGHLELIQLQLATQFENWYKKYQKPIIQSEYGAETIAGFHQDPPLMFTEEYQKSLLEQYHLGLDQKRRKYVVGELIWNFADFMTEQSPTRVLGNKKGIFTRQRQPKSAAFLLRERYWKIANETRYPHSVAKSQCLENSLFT
Method: Compound (J1-1) solution (100 µM, pH 7.4 or pH 5.5) prepared in Example 1 of the present invention was mixed with β-glucuronidase (300 U) and incubated in a shaker at 37 °C. Corresponding samples (n=3) were taken at 1 min, 2 min, 5 min, 10 min, 20 min, 45 min, 60 min, and 90 min, precipitated with cold acetonitrile, centrifuged at 4 °C for 15 min, and the supernatant was collected. The content of SN38 was determined by HPLC.

[2] = system: HCT116, A549, MCF-7, HepG2, and 4T1 cells; experiment: In vitro drug cytotoxicity assay (MTT) with or without β-glucuronidase; format: cell-based; details: 72 h
Method: The in vitro cytotoxicity of Compound (J1-1) prepared in Example 1 of the present invention against HCT116, A549, MCF-7, HepG2, and 4T1 cells, as well as that in the presence of β-glucuronidase, was determined by MTT assay. A total of 200 µL of culture medium containing 4000 cells was seeded into each well of a 96-well plate. After incubation for adherence for 24 h in an incubator (37 °C, 5% CO2), the culture medium was removed, and 200 µL of drug solutions at various concentrations with or without β-glucuronidase supplementation was added, followed by incubation for 72 h. The medium was removed, 100 µL of MTT solution (0.5 mg/mL) was added to each well, and the plate was incubated for 3 h. Subsequently, 100 µL of triple solution was added to each well, and the plate was incubated for 12 h. The absorbance (OD) at 570 nm was measured using a microplate reader. Cell viability was calculated according to the following formula: Cell viability % = (ODsample −ODblank)/(ODcontrol −ODblank) × 100% [formula]
ODsampleis the absorbance of the drug-treated group, ODblank is the absorbance of complete medium alone, ODcontrol is the absorbance of the cell-seeded group without drug treatment.

[3] = Stability test in PBS and mouse plasma (HPLC); format: in vitro ADME
Method: The PBS solution (1 mM, pH 7.4) of Compound (J1-1) prepared in Example 1 of the present invention was incubated at 37 °C. Corresponding samples (n=3) were taken on Day 1, Day 2, Day 3, Day 5, and Day 7, and the contents of (J1-1) and SN38 were determined by HPLC.
Mouse plasma stability: 40 µL of the PBS solution (1 mM, pH 7.4) of Compound (J1-1) prepared in Example 1 of the present invention was mixed with 360 µL of mouse plasma and incubated in a shaker at 37 °C. Corresponding samples (n=3) were taken on Day 1, Day 2, Day 3, Day 5, and Day 7, precipitated with cold acetonitrile, centrifuged at 4 °C for 30 min, and the supernatant was collected. The content of SN38 was determined by HPLC.

**Q.** Which tumor volume ([1]; 30 mg/kg and 60 mg/kg intravenously via tail vein, twice a week, five administrations) does the source give for CCc1c2c(nc3ccc(OC(=O)N(C)c4cc([N+](=O)[O-])ccc4OCc4ccc(O[C@@H]5O[C@H](C(=O)O)[C@@H](O)[C@H](O)[C@H]5O)c(NC(=O)CCNC(=O)CCCCCN5C(=O)C=CC5=O)c4)cc13)-c1cc3c(c(=O)n1C2)COC(=O)[C@]3(O)CC [Compound J1-1] here?
**A.** significantly reduced or even eliminated

**Q.** And the survival period ([1]; HCT116 xenograft mouse model, summary statement)?
**A.** significantly prolonged

**Q.** What about the “release of the active drug” value (β-glucuronidase; conditions simulating the tumor microenvironment, summary statement) of the same molecule?
**A.** can rapidly release the active drug

**Q.** And the “release of SN38 triggered by β-glucuronidase” value (β-glucuronidase; pH 5.5, 100 µM)?
**A.** 100%

**Q.** And the “release of SN38 triggered by β-glucuronidase” value (β-glucuronidase; pH 7.4, 100 µM)?
**A.** 100%

**Q.** What about the “in vitro cytotoxicity in the presence of β-glucuronidase” value ([2]; with β-glucuronidase) of the same molecule?
**A.** could release the active drug upon β-glucuronidase triggering, thereby achieving the purpose of killing tumor cells

**Q.** What about the in vitro cytotoxicity ([2]; without β-glucuronidase) of the same molecule?
**A.** low cytotoxicity

**Q.** And the “release of SN38” value ([3]; mouse plasma with PBS at pH 7.4, 37 °C, within seven days)?
**A.** less than 2%

**Q.** And the “in vitro and in vivo stability” value ([3]; summary statement)?
**A.** excellent
